Measurements published in patent publication US10040815B2, “3-substituted 5-amino-6H-thiazolo[4,5-d]pyrimidine-2,7-dione compounds for the treatment and prophylaxis of virus infection” (Hoffmann-La Roche Inc., priority 2014, dated 2018).
Where two headings read alike, the source gives them in different places.

Assays:
human TLR7 = human TLR7 (Homo sapiens (Human), UniProt Q9NYK1); assay: HEK293-Blue-hTLR-7 cells assay (SEAP reporter, NF-κB activation); assay type: cell-based
Text: HEK293-Blue-hTLR-7 Cells Assay: A stable HEK293-Blue-hTLR-7 cell line was purchased from InvivoGen (Cat.#: hkb-htlr7, San Diego, Calif., USA). These cells were designed for studying the stimulation of human TLR7 by monitoring the activation of NF-κB. A SEAP (secreted embryonic alkaline phosphatase) reporter gene was placed under the control of the IFN-β[…] minimal promoter fused to five NF-κB and AP-1-binding sites. The SEAP was induced by activating NF-κB and AP-1 via stimulating HEK-Blue hTLR7 cells with TLR7 ligands. Therefore the reporter expression was regulated by the NF-κB promoter upon stimulation of human TLR7 for 20 hours. The cell culture supernatant SEAP reporter activity was determined using QUANTI-Blue™ kit (Cat.#: rep-qb1, Invivogen, San Diego, Calif., USA) at a wavelength of 640 nm, a detection medium that turns purple or blue in the presence of alkaline phosphatase. […] Then 20 μL of the supernatant from each well was incubated with 180 μL Quanti-blue substrate solution at 37° C. for 2 hours and the absorbance was read at 620˜655 nm using a spectrophotometer. […] Hiroaki Hemmi et al, Nature Immunology 3, 196-200 (2002).

human hepatocytes = assay: Metabolic conversion of prodrugs to active forms in human hepatocytes (LC-MS/MS); assay type: in vitro ADME; settings: for metabolic conversion of prodrug to active metabolite in human hepatocytes: active metabolites Example 1-A, Example 14-A and penciclovir, respectively
Text: Metabolism of Prodrugs: Formula (II) or Formula (IIa) A study was undertaken to evaluate the metabolic conversion of prodrugs, formula (II) or formula (IIa), to compounds of formula (I) or formula (Ia) of the present invention. The produgs, formula (II) or formula (IIa), can be metabolized to the active compound of formula (I) or formula (Ia) and other compounds of the invention in the body if they are served as prodrugs. Hepatocytes are often used to assess the degree of metabolic conversion of prodrugs in the body of animal or human. A study was undertaken to evaluate the metabolic conversion of prodrugs, Example 2-A, Example 3-A, Example 4-A, Example 16-A and Example 17-A, to the corresponding active forms, Example 1-A and Example 14-A, in the presence of human hepatocytes. The formation of active forms, Example 1-A and Example 14-A, were monitored in the study. For comparison, the metabolic conversion of famciclovir to penciclovir was also assessed. Cryopreserved hepatocytes plating medium (Cat.#: PY-HMD-01) was purchased from RILD Research Institute for Liver Diseases (Shanghai) Co. Ltd. Cryopreserved human hepatocyte (Cat.#: X008005, Lot#:VRR) was purchased from In Vitro Technologies (Baltimore, Md.). The stock hepatocyte suspension was prepared from cryopreserved hepatocytes in plating medium at the concentration of 1.8×10^6 cells/mL. […] Reaction suspensions were prepared in 24-well cell culture plate by mixing 200 μL of hepatocytes suspension (Cyno or human) and 200 μL of working solution. The final incubation contained 0.9×10^6 cells/mL and 50 μM compound. The above mixtures were incubated at 37° C. in a humidified 5% CO2 atmosphere, with a 150 rpm shaking. After 180 min of incubation, 200 μL of the incubation mixture was transferred to 1.5 mL tube and quenched with 400 μL stop solution (ice-cold acetonitrile with 0.2 μM Tolbutamide as internal standard). The samples were centrifuged at 12000 rpm for 10 minutes and the resultant supernatants were subjected to LC-MS/MS analysis. The calibration curves were prepared in the following way. To a 200 μL of cell suspension (cell density of 1.8 million cells/mL), 198 μL of hepatocyte plating medium and 2 μL of the appropriate concentration of the compound in DMSO were added. Samples were mixed thoroughly and 200 μL of the mixture was transferred to 400 uL of the stop solution (see above). […] The compounds were quantified on an API5500 […] instrument in the ESI-Positive MRM mode.

HBV (hepatitis B virus) = assay: In vivo antiviral efficacy in AAV-HBV mouse model; settings: QOD, mouse serum
[1] = HEK293-Blue-hTLR-7 cells, 20 hours incubation, SEAP reporter, read-out: HEK293- hTLR-7 EC50
[2] = 100 mg/kg PO, after the 6-week treatment
[3] = 300 mg/kg PO, at the end of the treatment (6 weeks)

Chain of human TLR7 (Q9NYK1 27-1049): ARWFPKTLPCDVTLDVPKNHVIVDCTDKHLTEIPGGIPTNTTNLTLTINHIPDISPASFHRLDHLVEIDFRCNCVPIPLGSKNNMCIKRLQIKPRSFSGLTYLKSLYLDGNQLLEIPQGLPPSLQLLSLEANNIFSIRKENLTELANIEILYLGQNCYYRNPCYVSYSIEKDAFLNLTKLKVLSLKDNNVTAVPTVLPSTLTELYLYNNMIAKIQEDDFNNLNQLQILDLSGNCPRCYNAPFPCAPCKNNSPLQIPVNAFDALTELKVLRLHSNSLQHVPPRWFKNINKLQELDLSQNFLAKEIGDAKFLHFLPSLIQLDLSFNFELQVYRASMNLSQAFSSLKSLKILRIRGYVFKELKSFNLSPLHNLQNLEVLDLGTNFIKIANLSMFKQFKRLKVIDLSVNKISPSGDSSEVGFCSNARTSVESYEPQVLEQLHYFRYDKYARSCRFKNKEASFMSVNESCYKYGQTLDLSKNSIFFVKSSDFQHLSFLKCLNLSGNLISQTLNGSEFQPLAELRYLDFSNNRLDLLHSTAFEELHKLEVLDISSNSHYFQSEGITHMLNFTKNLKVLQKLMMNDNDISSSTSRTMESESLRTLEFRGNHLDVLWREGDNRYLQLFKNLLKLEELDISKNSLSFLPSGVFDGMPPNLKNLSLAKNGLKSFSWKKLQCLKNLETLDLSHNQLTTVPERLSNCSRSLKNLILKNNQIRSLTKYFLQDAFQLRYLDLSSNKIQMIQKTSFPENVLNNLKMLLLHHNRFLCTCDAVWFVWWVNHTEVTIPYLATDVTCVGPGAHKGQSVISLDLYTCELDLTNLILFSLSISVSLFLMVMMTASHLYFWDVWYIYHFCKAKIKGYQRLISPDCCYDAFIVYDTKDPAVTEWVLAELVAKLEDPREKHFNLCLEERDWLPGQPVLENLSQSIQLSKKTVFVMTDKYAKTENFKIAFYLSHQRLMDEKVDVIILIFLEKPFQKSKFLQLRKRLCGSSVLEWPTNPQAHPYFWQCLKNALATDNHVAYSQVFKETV

| Structure (SMILES) | EC50 (human TLR7; [1]) | also measured |
| --- | --- | --- |
| CCC(O)[C@@H]1C[C@@H](OC(C)=O)[C@H](n2c(=O)sc3cnc(N)nc32)O1 (single isomer, unassigned) [Example 3-A] | – | metabolic conversion of prodrug to active metabolite in human hepatocytes (human hepatocytes): metabolized to yield the corresponding active metabolites |
| CC(=O)OCC(CCn1cnc2cnc(N)nc21)COC(C)=O [Famciclovir, famciclovir, reference compound] | – | metabolic conversion of prodrug to active metabolite in human hepatocytes (human hepatocytes): metabolized to yield the corresponding active metabolites |
| CCC(O)[C@@H]1C[C@@H](O)[C@H](n2c(=O)sc3cnc(N)nc32)O1 (single isomer, unassigned) [Example 2-A] | – | metabolic conversion of prodrug to active metabolite in human hepatocytes (human hepatocytes): metabolized to yield the corresponding active metabolites |
| C[C@H](O)[C@@H]1C[C@@H](C)[C@H](n2c(=O)sc3c(=O)[nH]c(N)nc32)O1 [Example 31, 5-Amino-3-[(2R,3R,5S)-5-[(1S)-1-hydroxyethyl]-3-methyl-tetrahydrofuran-2-yl]-6H-thiazolo[4,5-d]pyrimidine-2,7-dione] | 70 µM | – |
| CCCC(O)[C@@H]1C[C@@H](O)[C@H](n2c(=O)sc3c(=O)[nH]c(N)nc32)O1 (single isomer, unassigned) [Example 10-A] | 63 µM | – |
| CC(=O)OC(C1CC1)[C@@H]1C[C@@H](O)[C@H](n2c(=O)sc3cnc(N)nc32)O1 (single isomer, unassigned) [Example 16-A] | – | metabolic conversion of prodrug to active metabolite in human hepatocytes (human hepatocytes): metabolized to yield the corresponding active metabolites |
| CS[C@@H]1C[C@@H](CO)O[C@H]1n1c(=O)sc2c(=O)[nH]c(N)nc21 [Example 39, 5-Amino-3-[(2R,3R,5S)-5-(hydroxymethyl)-3-methylsulfanyl-tetrahydrofuran-2-yl]-6H-thiazolo[4,5-d]pyrimidine-2,7-dione] | 62 µM | – |
| Nc1nc2c(sc(=O)n2[C@@H]2O[C@H](CO)C[C@H]2O)c(=O)[nH]1 [ANA-122, reference compound] | 446 µM | – |
| Nc1nc2c(sc(=O)n2[C@@H]2O[C@H](CO)C[C@H]2N2CCCC2)c(=O)[nH]1 [Example 32, 5-Amino-3-[(2R,3R,5S)-5-(hydroxymethyl)-3-pyrrolidin-1-yl-tetrahydrofuran-2-yl]-6H-thiazolo[4,5-d]pyrimidine-2,7-dione] | 67 µM | – |
| C=CC(O)[C@@H]1C[C@@H](O)[C@H](n2c(=O)sc3c(=O)[nH]c(N)nc32)O1 (single isomer, unassigned) [Example 24-A] | 70 µM | – |
| CCC(OC(C)=O)[C@@H]1C[C@@H](O)[C@H](n2c(=O)sc3cnc(N)nc32)O1 (single isomer, unassigned) [Example 4-A] | – | metabolic conversion of prodrug to active metabolite in human hepatocytes (human hepatocytes): metabolized to yield the corresponding active metabolites; reduction in HBV DNA (HBV (hepatitis B virus); [2]): more than 2 log; reduction in HBsAg (HBV (hepatitis B virus); [2]): 1.5 log; reduction in HBV DNA (HBV (hepatitis B virus); [3]): more than 3 log; reduction in HBsAg (HBV (hepatitis B virus); [3]): 2.7 log |
| Nc1ncc2sc(=O)n([C@@H]3O[C@H](C(O)C4CC4)C[C@H]3O)c2n1 (stereo partly drawn) [Example 17-A, 5-Amino-3-[(2R,3R,5S)-5-[cyclopropyl(hydroxy)methyl]-3-hydroxy-tetrahydrofuran-2-yl]thiazolo[4,5-d]pyrimidin-2-one] | – | Product Concentration in human hepatocytes (metabolized product formed from prodrug) (human hepatocytes; after 3-hour incubation of 50 μM of prodrugs, product 1-A, 14-A or Penciclovir): 7.3 µM; metabolic conversion of prodrug to active metabolite in human hepatocytes (human hepatocytes): metabolized to yield the corresponding active metabolites |
| CC[C@H](O)[C@@H]1C[C@@H](C)[C@H](n2c(=O)sc3c(=O)[nH]c(N)nc32)O1 [Example 28, 5-amino-3-[(2R,3R,5S)-5-[(1S)-1-hydroxypropyl]-3-methyl-tetrahydrofuran-2-yl]-6H-thiazolo[4,5-d]pyrimidine-2,7-dione] | – | EC50 (human TLR7): 10 µM |
| C=CCC(O)[C@@H]1C[C@@H](O)[C@H](n2c(=O)sc3c(=O)[nH]c(N)nc32)O1 (single isomer, unassigned) [Example 8-A] | 87 µM | – |

Continued by falling EC50 (human TLR7; [1]), values first:

| EC50 (human TLR7; [1]) | Structure (SMILES) | also measured |
| --- | --- | --- |
| 51 µM | CC[C@H](OC(=O)C(C)C)[C@@H]1C[C@@H](O)[C@H](n2c(=O)sc3c(=O)[nH]c(N)nc32)O1 [Example 42, [(1S)-1-[(2S,4R,5R)-5-(5-Amino-2,7-dioxo-6H-thiazolo[4,5-d]pyrimidin-3-yl)-4-hydroxy-tetrahydrofuran-2-yl]propyl] 2-methylpropanoate] | – |
| 48 µM | Nc1nc2c(sc(=O)n2[C@@H]2O[C@H](C(O)C3CC3)C[C@H]2O)c(=O)[nH]1 (single isomer, unassigned) [Example 14-A] | – |
| 38 µM | CC#CC(O)[C@@H]1C[C@@H](O)[C@H](n2c(=O)sc3c(=O)[nH]c(N)nc32)O1 (single isomer, unassigned) [Example 19-A] | – |
| 29 µM | C=CC[C@@H]1C[C@@H](C(O)CC)O[C@H]1n1c(=O)sc2c(=O)[nH]c(N)nc21 (stereo partly drawn) [Example 26, 3-[(2R,3R,5S)-3-allyl-5-(1-hydroxypropyl)tetrahydrofuran-2-yl]-5-amino-6H-thiazolo[4,5-d]pyrimidine-2,7-dione] | – |
| 29 µM | CC#C[C@H](O)[C@@H]1C[C@@H](C)[C@H](n2c(=O)sc3c(=O)[nH]c(N)nc32)O1 [Example 29, 5-Amino-3-[(2R,3R,5S)-5-[(1S)-1-hydroxybut-2-ynyl]-3-methyl-tetrahydrofuran-2-yl]-6H-thiazolo[4,5-d]pyrimidine-2,7-dione] | – |
| 26 µM | CCC(O)[C@@H]1C[C@@H](N=[N+]=[N-])[C@H](n2c(=O)sc3c(=O)[nH]c(N)nc32)O1 (single isomer, unassigned) [Example 23-A] | – |
| 15 µM | C[C@@H]1C[C@@H]([C@@H](O)C2CC2)O[C@H]1n1c(=O)sc2c(=O)[nH]c(N)nc21 [Example 30, 5-Amino-3-[(2R,3R,5S)-5-[(S)-cyclopropyl(hydroxy)methyl]-3-methyl-tetrahydrofuran-2-yl]-6H-thiazolo[4,5-d]pyrimidine-2,7-dione] | – |
| 15 µM | CCC[C@@H]1C[C@@H]([C@@H](O)CC)O[C@H]1n1c(=O)sc2c(=O)[nH]c(N)nc21 [Example 27-A, 5-amino-3-[(2R,3R,5S)-5-[(1S)-1-hydroxypropyl]-3-propyl-tetrahydrofuran-2-yl]-6H-thiazolo[4,5-d]pyrimidine-2,7-dione] | – |
| 14 µM | CCC(O)[C@@H]1C[C@@H](SC)[C@H](n2c(=O)sc3c(=O)[nH]c(N)nc32)O1 (single isomer, unassigned) [Example 22-A] | – |
| 12 µM | C#CC(O)[C@@H]1C[C@@H](O)[C@H](n2c(=O)sc3c(=O)[nH]c(N)nc32)O1 (single isomer, unassigned) [Example 18-A] | – |
| 12 µM | C=CC[C@@H]1C[C@@H](C(O)CC)O[C@H]1n1c(=O)sc2c(=O)[nH]c(N)nc21 (single isomer, unassigned) [Example 26-A] | – |
